From USRE47786E1, “Haloalkyl heteroaryl benzamide compounds” (Romark Laboratories, L.C., priority 2009, dated 2019)

Tests used:
[1] = Cytotoxicity by neutral red dye uptake in HBV assay cultures; format: cell-based; settings: human, confluent 2.2.15 cells (HBV-replicating), nine daily doses
Procedure: (§1) HBV antiviral assays were conducted as previous described [Korba and Gerin, Antiviral Res. 19:55 (1992 Confluent cultures of 2.2.15 cells were maintained on 96-well flat-bottomed tissue culture plates (confluence in this culture system is required for active, high levels of HBV replication equivalent to that observed in chronically-infected individuals [Sells et al. J. Virol. 62, 2836-2844 (1988); Korba and Gerin (1992)]. Cultures were treated with nine consecutive daily doses of the test compounds. HBV DNA levels were assessed by quantitative blot hybridization 24 hr. after the last treatment. Cytotoxicity was assessed by uptake of neutral red dye 24 hr. following the last treatment.
(§2) EC50, EC90 and CC50 values (±standard deviations [S.D.]) were calculated by linear regression analysis using data combined from all treated cultures (Korba and Gerin, 1992; Okuse et al., 2005). EC50 and EC90 are drug concentrations at which a 2-fold, or a 10-fold depression of intracellular HBV DNA or HCV RNA (relative to the average levels in untreated cultures), respectively, was observed. CC50 is the drug concentration at which a 2-fold lower level of neutral red dye uptake (relative to the average levels in untreated cultures) was observed. Selectivity index (S.I.) was calculated as CC50/EC90 for HBV assays and CC50/EC50 for HCV assays. EC90 values were used for calculation of the S.I. in HBV assays since at least a 3-fold depression of HBV DNA levels is typically required to achieve statistical significance in this assay system (Korba and Gerin, 1992). For combination treatments, EC50, EC90, CC50 and S.I. are presented for the first compound listed. The molar ratio of the compounds in each combination is also indicated.

Hep-2 cells = settings: human
HBV = HBV extracellular virion antiviral assay in 2.2.15 cells; format: cell-based; settings: Hepatitis B virus, extracellular virion HBV DNA, nine daily doses
Procedure: as §1
as §2, with “EC50 and EC90 are drug concentrations at which a 2-fold, or a 10-fold depression of intracellular HBV DNA or HCV RNA (relative to the average levels in untreated cultures), respectively, was observed.” left out

[2] = Cytotoxicity by neutral red dye uptake in HCV replicon cells; format: cell-based; settings: human, HCV replicon cell line AVAS (sub-genomic CONI), HCV replicon cells genotype 1B
Procedure: (§3) Antiviral activity of test compounds was assessed in a 3-day assay using the stably-expressing HCV replicon cell line, AVAS (sub-genomic CONI, genotype 1b) [Blight et al., Science 290, 1972-1974 (2000)] maintained as sub-confluent cultures on 96-well plates as previously described (Okuse et al., Antiviral Research 65, 23-34 (2005)]. Antiviral activity was determined by blot hybridization analysis of intracellular HCV RNA (normalized to the level of cellular B-actin RNA in each culture sample) and cytotoxicity was assessed by neutral red dye uptake after 3 days of treatment. Additional studies were performed using Huh7 cells containing another HCV replicon, H/FL-Neo, a genotype 1a full length construct [Blight et al., J. Virol. 77, 3181-3190 (2003)]. For studies involving human serum, standard culture medium (which contains 10% fetal bovine serum) and assay conditions were maintained.
as §2

[3] = system: HCV replicon cell line, AVAS (sub-genomic CONI, genotype 1b); test: Primary HCV replicon cell assay, genotype 1B; format: cell-based; settings: Hepatitis C virus, 72 h
Procedure: as §3, §2

MA104 cells [4] = test: Toxicity (MTT) in MA104 cells (Rhabdovirus section)
A72 cells = test: Toxicity (MTT) in A72 cells
HeLa cells = test: Toxicity (MTT) in HeLa cells
MA104 cells [5] = test: Toxicity (MTT) in MA104 cells (Rotavirus WAG8P1 section)
37RC cells = test: Toxicity (MTT) in 37RC cells
HeLa R19 cells [6] = test: Toxicity (MTT) in HeLa R19 cells (Rhinovirus section)
HeLa R19 cells [7] = test: Toxicity (MTT) in HeLa R19 cells (Adenovirus section)
MA104 cells [8] = test: Toxicity (MTT) in MA104 cells (Rotavirus SA11 section)
MDCK cells = test: Toxicity (MTT) in MDCK cells

SMILES: O=C(Nc1nnc(C(F)(F)F)s1)c1ccccc1O [Compound 6]
- CC50 at 9 days [1]: > 100 µM
- Toxicity LD50 (MTT) (Hep-2 cells): >50 µg/mL
- EC50 (HBV): > 4 µM
- EC90 (HBV): > 4 µM
- CC50 at 3 days [2]: 5.3 µM
- EC50 [3]: < 5 µM
- EC90 [3]: > 5 µM

SMILES: O=C(Nc1ncc([N+](=O)[O-])s1)c1ccccc1O [Tizoxanide]
- CC50 at 9 days [1]: > 100 µM
- Toxicity LD50 (MTT) (MA104 cells [4]): 50 µg/mL
- Toxicity LD50 (MTT) (A72 cells): >50 µg/mL
- Toxicity LD50 (MTT) (HeLa cells): 3 µg/mL
- Toxicity LD50 (MTT) (MA104 cells [5]): >50 µg/mL
- Toxicity LD50 (MTT) (37RC cells): >50 µg/mL
- Toxicity LD50 (MTT) (Hep-2 cells): 50 µg/mL
- Toxicity LD50 (MTT) (HeLa R19 cells [6]): >50 µg/mL
- Toxicity LD50 (MTT) (HeLa R19 cells [7]): 0.8 µg/mL
- EC50 (HBV): 0.05 to 0.2 µM
- EC90 (HBV): 0.8 to 3.2 µM
- Toxicity LD50 (MTT) (MA104 cells [8]): >50 µg/mL
- Toxicity LD50 (MTT) (MDCK cells): >50 µg/mL
- CC50 at 3 days [2]: 15 µM
- EC50 [3]: 0.05 to 0.5 µM
- EC90 [3]: 0.5 to 10 µM

SMILES: CC(=O)Oc1ccccc1C(=O)Nc1nc(C(F)(F)F)cs1 [Compound 3]
- CC50 at 9 days [1]: > 100 µM
- Toxicity LD50 (MTT) (Hep-2 cells): >50 µg/mL
- EC50 (HBV): > 4 µM
- EC90 (HBV): > 4 µM

SMILES: O=C(Nc1nc(C(F)(F)F)cs1)c1ccccc1O [Compound 4]
- CC50 at 9 days [1]: > 100 µM
- Toxicity LD50 (MTT) (Hep-2 cells): >50 µg/mL
- EC50 (HBV): > 4 µM
- EC90 (HBV): > 4 µM

SMILES: O=C(Nc1ncc(C(F)(F)F)s1)c1ccccc1O [Compound 2]
- CC50 at 9 days [1]: > 100 µM
- EC50 (HBV): 3.2 to 4 µM
- EC90 (HBV): > 4 µM
- melting point: 260 to 264 °C (dec.)
- CC50 at 3 days [2]: 0.46 µM
- EC50 [3]: 0.005 to 0.05 µM
- EC90 [3]: 0.005 to 0.05 µM

SMILES: CC(=O)Oc1ccccc1C(=O)Nc1nnc(C(F)(F)F)s1 [Compound 5]
- CC50 at 9 days [1]: > 100 µM
- Toxicity LD50 (MTT) (37RC cells): >50 µg/mL
- EC50 (HBV): > 4 µM
- EC90 (HBV): > 4 µM
- Toxicity LD50 (MTT) (MDCK cells): >50 µg/mL
- CC50 at 3 days [2]: 15 µM
- EC50 [3]: < 5 µM
- EC90 [3]: > 5 µM

SMILES: CC(=O)Oc1ccccc1C(=O)Nc1ncc(C(F)(F)F)s1 [Compound 1]
- CC50 at 9 days [1]: > 100 µM
- Toxicity LD50 (MTT) (Hep-2 cells): >50 µg/mL
- Toxicity LD50 (MTT) (HeLa R19 cells [6]): >50 µg/mL
- Toxicity LD50 (MTT) (HeLa R19 cells [7]): 4 µg/mL
- EC50 (HBV): 3.2 to 4 µM
- EC90 (HBV): > 4 µM
- CC50 at 3 days [2]: 3.7 µM
- EC50 [3]: < 5 µM
- EC90 [3]: > 5 µM

SMILES: CC(=O)Oc1ccccc1C(=O)Nc1ncc([N+](=O)[O-])s1 [Nitazoxanide, reference compound]
- CC50 at 9 days [1]: > 100 µM
- Toxicity LD50 (MTT) (MA104 cells [5]): >50 µg/mL
- Toxicity LD50 (MTT) (37RC cells): >50 µg/mL
- Toxicity LD50 (MTT) (Hep-2 cells): >50 µg/mL
- Toxicity LD50 (MTT) (HeLa R19 cells [6]): >50 µg/mL
- Toxicity LD50 (MTT) (HeLa R19 cells [7]): >50 µg/mL
- EC50 (HBV): 0.05 to 0.2 µM
- EC90 (HBV): 0.8 to 3.2 µM
- Toxicity LD50 (MTT) (MA104 cells [8]): >50 µg/mL
- Toxicity LD50 (MTT) (MDCK cells): >50 µg/mL
- CC50 at 3 days [2]: 32 µM
- EC50 [3]: 0.05 to 0.5 µM
- EC90 [3]: 0.5 to 10 µM
